# From article PMC11532494 (Nature Communications, 2024)
# “And” between values parts separate entries of the source, which are not always exact repeats. Equal values may be shown once. Read-outs that look alike come from different tables or passages of the source. No end group written: not given here. *: point of attachment. AMC = Cc1cc(=O)oc2cc(N*)ccc12
# How the values were obtained:
# VsHdaH (1b) = type: biochemical, Vibrio sp.; details: VKDAC
# RsPrpH (1b) = test: Substrate screening assay (acyl-peptide-AMC); type: biochemical, Rhizorhabdus sp.; details: RsPrpH (1b); for [AMC]: Transform RFU in [AMC]
# RwDmhA (1b) = RwDmhA (1b) (Rhizorhabdus wittichii, UniProt A0A067XIQ6); type: biochemical; details: RwDmhA (1b)
# KpHdaH (1b) = KpHdaH (1b) (Klebsiella pneumoniae, UniProt A0A377Z5F6); type: biochemical; details: KpHdaH (1b)
# BsAcuC (2c) = molecular target: T1, BsAcuC (2c) (Bacillus subtilis, UniProt P39067); test: Substrate screening assay (acyl-peptide-AMC); type: biochemical; details: BsAcuC (2c); for [AMC]: Transform RFU in [AMC]
# T1 construct: made in house; host or cells: E. coli BL21 (DE3)
# T1 sequence (P39067 1-387): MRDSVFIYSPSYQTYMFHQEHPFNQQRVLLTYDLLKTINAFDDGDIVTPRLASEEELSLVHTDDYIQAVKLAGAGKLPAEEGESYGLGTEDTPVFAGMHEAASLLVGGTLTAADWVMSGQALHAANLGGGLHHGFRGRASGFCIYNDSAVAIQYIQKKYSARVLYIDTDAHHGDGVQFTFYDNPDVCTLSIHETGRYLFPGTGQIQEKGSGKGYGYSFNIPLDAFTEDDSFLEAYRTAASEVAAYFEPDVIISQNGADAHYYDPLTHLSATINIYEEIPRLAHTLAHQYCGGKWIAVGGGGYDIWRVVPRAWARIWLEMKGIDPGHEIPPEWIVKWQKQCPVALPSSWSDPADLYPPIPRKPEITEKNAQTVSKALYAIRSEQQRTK
# Method: (§1) Experiments with SIRT2 and SIRT5 were supplemented with NAD^+ (500 µM). Thereafter, a solution of trypsin (25 µL, 5.0 mg/mL; final concentration of 2.5 mg/mL) was added, and the development of the assay was allowed to proceed for 90 min at room temperature before fluorescence analysis. […] To this end, a single category is given to all conversions >48% on the heatmap. […] For the H4-derived peptide LGKbio no positive control was available.
# VcHdaH (5b) = type: biochemical, Vibrio cholerae; details: VcHdaH (5b); for [AMC]: Transform RFU in [AMC]
# PsApaH (4) = PsApaH (4) (Pseudomonas sp. M30-35, UniProt A0A1Y0KY79); type: biochemical; details: PsApaH (4)
# Method: as §1
# LcApaH (3) = LcApaH (3) (Legionella cherrii, UniProt A0A0W0SGS1); type: biochemical
# Controls = test: Substrate screening assay (acyl-peptide-AMC), control enzymes; type: biochemical
# [1] = Transform RFU in [AMC], Controls, Sample 1
# [2] = Transform RFU in [AMC], Controls, Sample 2
# [3] = Transform RFU*2, Controls, Sample 1
# [4] = Transform RFU*2, Controls, Sample 2
Substance,"Relative Fluorescene Units (RFU) (VsHdaH (1b); Transform RFU*2, Sample 1)","Relative Fluorescene Units (RFU) (VsHdaH (1b); Transform RFU*2, Sample 2)",Relative Fluorescene Units (RFU) (VsHdaH (1b); Sample 1),Relative Fluorescene Units (RFU) (VsHdaH (1b); Sample 2),Relative Fluorescene Units (RFU) (KpHdaH (1b); Sample 1),Relative Fluorescene Units (RFU) (KpHdaH (1b); Sample 2),"Relative Fluorescene Units (RFU) (KpHdaH (1b); Transform RFU*2, Sample 1)","Relative Fluorescene Units (RFU) (KpHdaH (1b); Transform RFU*2, Sample 2)",Relative Fluorescene Units (RFU) (BsAcuC (2c); Sample 1),Relative Fluorescene Units (RFU) (BsAcuC (2c); Sample 2),[AMC] (BsAcuC (2c); Sample 1) [nM],[AMC] (BsAcuC (2c); Sample 2) [nM],"Relative Fluorescene Units (RFU) (BsAcuC (2c); Transform RFU*2, Sample 1)","Relative Fluorescene Units (RFU) (BsAcuC (2c); Transform RFU*2, Sample 2)",[AMC] (VcHdaH (5b); Sample 1) [nM],[AMC] (VcHdaH (5b); Sample 2) [nM],"Relative Fluorescene Units (RFU) (VcHdaH (5b); Transform RFU*2, Sample 1)","Relative Fluorescene Units (RFU) (VcHdaH (5b); Transform RFU*2, Sample 2)",Relative Fluorescene Units (RFU) (VcHdaH (5b); Sample 1),Relative Fluorescene Units (RFU) (VcHdaH (5b); Sample 2),further results
"QPKKdec (QPKK-{AMC}; not fully specified (residue 4); printed as QPKKdec; also: decanoyl-lysine (which Lys not given here); UniProt P04637 317-320, looked up, fragment)",126,202,63,101,50,66,100,132,1598,1156,1560.55,1128.91,3196,2312,77.15,27.34,158,56,79,28,"Relative Fluorescene Units (RFU) (RsPrpH (1b); Sample 1): 32 RFU; Relative Fluorescene Units (RFU) (RsPrpH (1b); Sample 2): 43 RFU; [AMC] (RsPrpH (1b); Sample 1): 31.25 nM; [AMC] (RsPrpH (1b); Sample 2): 41.99 nM; Relative Fluorescene Units (RFU) (RsPrpH (1b); Transform RFU*2, Sample 1): 64 RFU; Relative Fluorescene Units (RFU) (RsPrpH (1b); Transform RFU*2, Sample 2): 86 RFU; Relative Fluorescene Units (RFU) (RwDmhA (1b); Sample 1): 19 RFU; Relative Fluorescene Units (RFU) (RwDmhA (1b); Sample 2): 47 RFU; Relative Fluorescene Units (RFU) (RwDmhA (1b); Transform RFU*2, Sample 1): 38 RFU; Relative Fluorescene Units (RFU) (RwDmhA (1b); Transform RFU*2, Sample 2): 94 RFU; Relative Fluorescene Units (RFU) (PsApaH (4); Sample 1): 94 RFU; Relative Fluorescene Units (RFU) (PsApaH (4); Sample 2): 100 RFU; Relative Fluorescene Units (RFU) (PsApaH (4); Transform RFU*2, Sample 1): 188 RFU; Relative Fluorescene Units (RFU) (PsApaH (4); Transform RFU*2, Sample 2): 200 RFU; [AMC] (LcApaH (3)): 143.55 nM and 182.62 nM; Relative Fluorescene Units (RFU) (Controls): 14990 RFU and 17431 RFU; [AMC] (Controls; [1]): 14.63867 µM; [AMC] (Controls; [2]): 17.02246 µM; Relative Fluorescene Units (RFU) (Controls; [3]): 29980 RFU; Relative Fluorescene Units (RFU) (Controls; [4]): 34862 RFU"
"QPKKmyr (QPKK-{AMC}; not fully specified (residue 4); printed as QPKKmyr; also: myristoyl-lysine (which Lys not given here); UniProt P04637 317-320, looked up, fragment)",354,-1178,177,-589,178,116,356,232,313,767,305.66,749.02,626,1534,-96.68,-269.53,-198,-552,-99,-276,"Relative Fluorescene Units (RFU) (RsPrpH (1b); Sample 1): -108 RFU; Relative Fluorescene Units (RFU) (RsPrpH (1b); Sample 2): -824 RFU; [AMC] (RsPrpH (1b); Sample 1): -105.47 nM; [AMC] (RsPrpH (1b); Sample 2): -804.69 nM; Relative Fluorescene Units (RFU) (RsPrpH (1b); Transform RFU*2, Sample 1): -216 RFU; Relative Fluorescene Units (RFU) (RsPrpH (1b); Transform RFU*2, Sample 2): -1648 RFU; Relative Fluorescene Units (RFU) (RwDmhA (1b); Sample 1): -346 RFU; Relative Fluorescene Units (RFU) (RwDmhA (1b); Sample 2): -865 RFU; Relative Fluorescene Units (RFU) (RwDmhA (1b); Transform RFU*2, Sample 1): -692 RFU; Relative Fluorescene Units (RFU) (RwDmhA (1b); Transform RFU*2, Sample 2): -1730 RFU; Relative Fluorescene Units (RFU) (PsApaH (4); Sample 1): 40 RFU; Relative Fluorescene Units (RFU) (PsApaH (4); Sample 2): 113 RFU; Relative Fluorescene Units (RFU) (PsApaH (4); Transform RFU*2, Sample 1): 80 RFU; Relative Fluorescene Units (RFU) (PsApaH (4); Transform RFU*2, Sample 2): 226 RFU; Relative Fluorescene Units (RFU) (Controls): 6155 RFU and 7393 RFU; [AMC] (Controls; [1]): 6.01074 µM; [AMC] (Controls; [2]): 7.21973 µM; Relative Fluorescene Units (RFU) (Controls; [3]): 12310 RFU; Relative Fluorescene Units (RFU) (Controls; [4]): 14786 RFU"
"QPKKoct (QPKK-{AMC}; not fully specified (residue 4); printed as QPKKoct; also: octanoyl-lysine (which Lys not given here); UniProt P04637 317-320, looked up, fragment)",248,194,124,97,-13,-43,-26,-86,2401,1622,2344.73,1583.98,4802,3244,67.38,71.29,138,146,69,73,"Relative Fluorescene Units (RFU) (RsPrpH (1b); Sample 1): 4 RFU; Relative Fluorescene Units (RFU) (RsPrpH (1b); Sample 2): 72 RFU; [AMC] (RsPrpH (1b); Sample 1): 3.91 nM; [AMC] (RsPrpH (1b); Sample 2): 70.31 nM; Relative Fluorescene Units (RFU) (RsPrpH (1b); Transform RFU*2, Sample 1): 8 RFU; Relative Fluorescene Units (RFU) (RsPrpH (1b); Transform RFU*2, Sample 2): 144 RFU; Relative Fluorescene Units (RFU) (RwDmhA (1b); Sample 1): 53 RFU; Relative Fluorescene Units (RFU) (RwDmhA (1b); Sample 2): 75 RFU; Relative Fluorescene Units (RFU) (RwDmhA (1b); Transform RFU*2, Sample 1): 106 RFU; Relative Fluorescene Units (RFU) (RwDmhA (1b); Transform RFU*2, Sample 2): 150 RFU; Relative Fluorescene Units (RFU) (PsApaH (4); Sample 1): 88 RFU; Relative Fluorescene Units (RFU) (PsApaH (4); Sample 2): 73 RFU; Relative Fluorescene Units (RFU) (PsApaH (4); Transform RFU*2, Sample 1): 176 RFU; Relative Fluorescene Units (RFU) (Controls): 6579 RFU and 10102 RFU; [AMC] (Controls; [1]): 6.4248 µM; [AMC] (Controls; [2]): 9.86523 µM; Relative Fluorescene Units (RFU) (Controls; [3]): 13158 RFU; Relative Fluorescene Units (RFU) (Controls; [4]): 20204 RFU"
"QPKKpal (QPKK-{AMC}; not fully specified (residue 4); printed as QPKKpal; also: palmitoyl-lysine (which Lys not given here); UniProt P04637 317-320, looked up, fragment)",82,-38,41,-19,9,-4,18,-8,139,15,135.74,14.65,278,30,22.46,-39.06,46,-80,23,-40,"Relative Fluorescene Units (RFU) (PsApaH (4); Sample 1): 40 RFU; Relative Fluorescene Units (RFU) (PsApaH (4); Sample 2): 14 RFU; Relative Fluorescene Units (RFU) (PsApaH (4); Transform RFU*2, Sample 1): 80 RFU; Relative Fluorescene Units (RFU) (PsApaH (4); Transform RFU*2, Sample 2): 28 RFU; [AMC] (Controls): 8.07129 µM and 10.51367 µM"
